Structures can show the parent of a compound that is named as a salt.
Key:
Settings in all cases: 24 h
U2OS [1] = test: mean OPP incorporation (global translation) relative to DMSO (% of DMSO); higher = more protein synthesis
Protocol: (§1)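 Validation screen in U2OS cells: hits tested at 1, 3 and 10 uM for 24 h in duplicate plates. Translation was read by OPP incorporation (1 h pulse) and HPG incorporation (30 min in methionine-free medium), quantified by high-throughput microscopy alongside nuclei counts. All values are normalised to DMSO (= 100).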

U2OS [2] = test: nuclei count in OPP assay relative to DMSO (% of DMSO); higher = more viable cells
Protocol: as §1

U2OS [3] = test: nuclei count in HPG assay relative to DMSO (% of DMSO); higher = more viable cells
Protocol: as §1

U2OS [4] = test: mean HPG incorporation (global translation) relative to DMSO (% of DMSO); higher = more protein synthesis
Protocol: as §1

SMILES | mean OPP incorporation (U2OS [1]; 1 µM) | mean OPP incorporation (U2OS [1]; 3 µM) | mean OPP incorporation (U2OS [1]; 10 µM) | nuclei count in OPP assay (U2OS [2]; 1 µM) | nuclei count in OPP assay (U2OS [2]; 3 µM) | nuclei count in OPP assay (U2OS [2]; 10 µM) | nuclei count in HPG assay (U2OS [3]; 1 µM) | nuclei count in HPG assay (U2OS [3]; 3 µM) | nuclei count in HPG assay (U2OS [3]; 10 µM) | mean HPG incorporation (U2OS [4]; 1 µM) | mean HPG incorporation (U2OS [4]; 3 µM) | mean HPG incorporation (U2OS [4]; 10 µM)
Cn1cc(-c2ccc3ncc(Cc4ccc5ncccc5c4)n3n2)cn1 [NVP-BVU972] | 91 | 107 | 124 | 104 | 79.7 | 89.8 | 107 | 85.5 | 88.5 | 114 | 132 | 138
C[C@]12CC[C@@H]3c4ccc(O)cc4C[C@@H](CCCCCCCCC[S+]([O-])CCCC(F)(F)C(F)(F)F)[C@H]3[C@@H]1CC[C@@H]2O (some centres not stated) [Fulvestrant] | 115 | 123 | 115 | 98.7 | 96.4 | 93.8 | 97 | 101 | 89.1 | 118 | 125 | 115
CC(=O)O[C@@H]1C[C@H]2C(C)(C)C(=O)C=C[C@]2(C)[C@H]2CC[C@@]3(C)[C@H](c4ccoc4)OC(=O)[C@H]4O[C@]43[C@@]21C [Gedunin] | 112 | 114 | 115 | 97.7 | 96.4 | 95.9 | 103 | 101 | 94.7 | 91.2 | 88.7 | 66.3
CCC(=O)CCCCC[C@@H]1NC(=O)[C@H]2CCCCN2C(=O)[C@H]([C@@H](C)CC)NC(=O)[C@H](Cc2cn(OC)c3ccccc23)NC1=O [Apicidin] | 92.2 | 83.9 | 55.8 | 106 | 95.4 | 91.7 | 108 | 96.3 | 88 | 132 | 135 | 85
O=c1cc(N2CCOCC2)oc2c(-c3cccc4c3sc3ccccc34)cccc12 | 92.6 | 107 | 104 | 97.4 | 87.4 | 89.1 | 96.8 | 89.5 | 79.6 | 66.7 | 74.8 | 61.8
COc1cc(C)c(/C=C/C(C)=C/C=C/C(C)=C/C(=O)O)c(C)c1C [Acitretin] | 107 | 109 | 109 | 91.4 | 89.8 | 94.2 | 91.8 | 95.3 | 95.7 | 99.8 | 108 | 87
O=C(Nc1ccc(OC(F)(F)F)cc1)c1sccc1NCc1ccnc2ccccc12 [OSI-930] | 99.3 | 101 | 114 | 98 | 89.7 | 91.2 | 96.9 | 98.1 | 92 | 93.9 | 92.7 | 64.2
CC(C)(C)c1nc(-c2cccc(NS(=O)(=O)c3c(F)cccc3F)c2F)c(-c2ccnc(N)n2)s1 | 102 | 97.2 | 114 | 101 | 102 | 104 | 96.6 | 100 | 104 | 50.8 | 48 | 106
CC[C@@H]1/C=C(\C)C[C@H](C)C[C@H](OC)[C@H]2O[C@@](O)(C(=O)C(=O)N3CCCC[C@H]3C(=O)O[C@H](/C(C)=C/[C@@H]3CC[C@H](Cl)[C@H](OC)C3)[C@H](C)[C@@H](O)CC1=O)[C@H](C)C[C@@H]2OC [Pimecrolimus] | 125 | 123 | 124 | 101 | 106 | 95.5 | 103 | 101 | 92.5 | 108 | 113 | 99.6
O=[N+]([O-])c1ccccc1S(=O)(=O)NCC1CCC(CNCC2CCc3ccccc3C2)CC1 (configuration not stated) [NTNCB hydrochloride] | 106 | 115 | 110 | 101 | 98.3 | 74.4 | 95.8 | 90.7 | 87.6 | 98 | 104 | 56.8
N#CC(c1ccnc(NCCc2cccnc2)n1)c1nc2ccccc2s1 (configuration not stated) [JNK Inhibitor V] | 122 | 127 | 110 | 104 | 94.1 | 79.9 | 105 | 93.9 | 77 | 122 | 133 | 85.5
Cc1cc(CS(=O)(=O)c2ccccc2)cc(OCc2ccc(CN3CCC[C@@H]3CO)cc2)c1 [PF-543] | 111 | 117 | 130 | 104 | 98.9 | 94.3 | 102 | 99.2 | 92.2 | 97.1 | 81.9 | 89.6
Nc1ccc(-c2cccc3c(=O)cc(N4CCOCC4)oc23)cc1 [PI 828] | 92.1 | 83.1 | 54.1 | 101 | 89.8 | 81.9 | 108 | 94.6 | 85.2 | 73.5 | 64.3 | 41.5
CC(C)n1nc(-c2cc3cc(O)ccc3[nH]2)c2c(N)ncnc21 [Torkinib (PP242)] | 58.4 | 37.4 | 27.3 | 96 | 81.7 | 74.7 | 96.6 | 83 | 76.6 | 42.9 | 32.7 | 30.9
Oc1ccc(Nc2nc(-c3ccc(Cl)cc3)cs2)cc1 [SKI II] | 91 | 83.5 | 69.5 | 88.5 | 85.3 | 75.2 | 99 | 88.9 | 72.6 | 92.6 | 79.3 | 55.7
CNC(=O)c1cccc(-c2ccc3c(N4CCOC[C@@H]4C)nc(N4CCOC[C@@H]4C)nc3n2)c1 [AZD2014] | 57.6 | 36.3 | 35.6 | 85.4 | 79.4 | 72.2 | 84.1 | 78 | 75 | 44.3 | 36.7 | 34.8

Reference: the supplement of paper PMC8183993
